In ChEMBL document CHEMBL1287644, “The novel benzopyran class of selective cyclooxygenase-2 inhibitors. Part III: the three microdose candidates” (Bioorg Med Chem Lett, 2010):

Assays:
Rattus norvegicus [1] = test: Antiinflammatory activity in rat air pouch model assessed as inhibition of carrageenan-induced PGE2 production administered 1 hr after carrageenan challenge
[2] = biological target: Prostaglandin G/H synthase 1 (Homo sapiens, UniProt P23219); test: Inhibition of human COX-1
Homo sapiens = species on record: Homo sapiens; test: Selectivity ratio of IC50 for human COX1 to IC50 for human COX2
Rattus norvegicus [3] = test: Antiinflammatory activity in rat air pouch model assessed as inhibition of carrageenan-induced PGE2 production administered 1 hr before carrageenan challenge; type: functional; conditions: for ED50: Rattus norvegicus
Rattus norvegicus [4] = test: Antiinflammatory activity in rat assessed as reduction of carrageenan-induced paw edema; type: functional
Rattus norvegicus [5] = species on record: Rattus norvegicus; test: Antiarthritic activity in rat assessed as reduction in adjuvant-induced arthritic pain; type: functional
[6] = Half life in cynomolgus monkey; type: ADME, organism-based, Macaca fascicularis; conditions: in vivo
[7] = Half life in human at 10 ug, po; type: ADME, organism-based; conditions: in vivo
[8] = Half life in rat; type: ADME, organism-based; conditions: in vivo
Rattus norvegicus [9] = species on record: Rattus norvegicus; test: Analgesic activity against carrageenan-induced thermal hyperalgesia in rat; type: functional
[10] = Half life in dog; type: ADME, organism-based, Canis lupus familiaris; conditions: in vivo

Prostaglandin G/H synthase 1, sequence (P23219 whole entry): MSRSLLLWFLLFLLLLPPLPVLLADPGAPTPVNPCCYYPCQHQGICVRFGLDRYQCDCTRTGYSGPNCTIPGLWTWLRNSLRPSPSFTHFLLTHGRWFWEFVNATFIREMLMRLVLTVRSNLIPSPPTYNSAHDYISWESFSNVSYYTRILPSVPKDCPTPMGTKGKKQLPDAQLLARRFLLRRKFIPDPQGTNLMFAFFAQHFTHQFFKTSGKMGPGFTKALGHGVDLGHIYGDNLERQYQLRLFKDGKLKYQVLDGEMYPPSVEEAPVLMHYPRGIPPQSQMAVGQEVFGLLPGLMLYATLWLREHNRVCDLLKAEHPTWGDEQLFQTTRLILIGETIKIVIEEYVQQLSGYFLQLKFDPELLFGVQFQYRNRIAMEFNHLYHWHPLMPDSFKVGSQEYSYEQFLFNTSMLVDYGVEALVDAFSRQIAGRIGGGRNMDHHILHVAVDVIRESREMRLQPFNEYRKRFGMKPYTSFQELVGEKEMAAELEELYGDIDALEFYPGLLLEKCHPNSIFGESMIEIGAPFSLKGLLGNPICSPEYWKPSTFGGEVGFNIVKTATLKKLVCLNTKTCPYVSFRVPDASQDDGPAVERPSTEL

SMILES	IC50 [2] [µM]	Ratio IC50 (Homo sapiens)	other results
CCc1ccc2c(c1)C=C(C(=O)O)C(C(F)(F)F)O2 (stereo not given)	0.12	0.36	inhibition (INH) (Rattus norvegicus [1]): 90%
COc1ccc2c(c1)C=C(C(=O)O)C(C(F)(F)F)O2 (stereo not given)		1	
O=C(O)C1=Cc2cc(OC(F)(F)F)ccc2OC1C(F)(F)F (stereo not given) [OCAROCOXIB]	17	773	
CCc1cc(OC(F)(F)F)cc2c1O[C@@H](C(F)(F)F)C(C(=O)O)=C2	100		
Cc1cc2c(c(C)c1Cl)C=C(C(=O)O)C(C(F)(F)F)O2 (stereo not given)	29.8	229	
Cc1cc(Cl)c2c(c1)C=C(C(=O)O)C(C(F)(F)F)O2 (stereo not given)	1.08	5.7	
COc1cc(OC(F)(F)F)cc2c1OC(C(F)(F)F)C(C(=O)O)=C2 (stereo not given)	0.32	0.5	
O=C(O)C1=Cc2cc(C(F)(F)F)ccc2OC1C(F)(F)F (stereo not given)	4.39		
Cc1cc2c(c(C)c1Cl)C=C(C(=O)O)[C@H](C(F)(F)F)O2	30.8		
CCCc1cc(OC(F)(F)F)cc2c1O[C@H](C(F)(F)F)C(C(=O)O)=C2	71.7		inhibition (INH) (Rattus norvegicus [3]): >68%
Cc1cc(C)c2c(c1)C=C(C(=O)O)C(C(F)(F)F)O2 (stereo not given)	169	704	
Cc1cc(Cl)c(C)c2c1OC(C(F)(F)F)C(C(=O)O)=C2 (stereo not given)	2.58	12	
COc1cc(Cl)c2c(c1)C=C(C(=O)O)C(C(F)(F)F)O2 (stereo not given)	25.6	107	
CCCc1cc(OC(F)(F)F)cc2c1OC(C(F)(F)F)C(C(=O)O)=C2 (stereo not given)	7	163	
CCc1cc(OC(F)(F)F)cc2c1O[C@H](C(F)(F)F)C(C(=O)O)=C2	19.9		ED50 (Rattus norvegicus [4]): 3.8 mg/kg; inhibition (INH) (Rattus norvegicus [3]): >72%; ED50 (Rattus norvegicus [3]): 1.87 mg/kg; ED50 (Rattus norvegicus [5]): 0.8 mg/kg; half-life [6]: 12 h; half-life [7]: 13 h; half-life [8]: 2 h; ED50 (Rattus norvegicus [9]): 5.6 mg/kg; half-life [10]: 7.7 h
CCc1cc(C)c2c(c1)C=C(C(=O)O)C(C(F)(F)F)O2 (stereo not given)	0.14	0.5	
Cc1cc2c(c(C)c1Cl)C=C(C(=O)O)[C@@H](C(F)(F)F)O2	2.28		ED50 (Rattus norvegicus [4]): 8 mg/kg; ED50 (Rattus norvegicus [3]): 0.41 mg/kg; ED50 (Rattus norvegicus [5]): 3.2 mg/kg; half-life [6]: 5.4 h; half-life [7]: 11 h; half-life [8]: 4.7 h; ED50 (Rattus norvegicus [9]): 7.6 mg/kg; half-life [10]: 23 h
Cc1c(Cl)cc2c(c1C)O[C@H](C(F)(F)F)C(C(=O)O)=C2			inhibition (INH) (Rattus norvegicus [1]): 60%
O=Cc1ccc2c(c1)C=C(C(=O)O)C(C(F)(F)F)O2 (stereo not given)	500	685	
CCc1cc(OC(F)(F)F)cc2c1OC(C(F)(F)F)C(C(=O)O)=C2 (stereo not given)	0.5		
O=C(O)C1=Cc2cc(Cl)ccc2OC1C(F)(F)F (stereo not given)		91	
Cc1ccc2c(c1)C=C(C(=O)O)C(C(F)(F)F)O2 (stereo not given)	224	896	inhibition (INH) (Rattus norvegicus [3]): 13%
COc1cc(C)cc2c1OC(C(F)(F)F)C(C(=O)O)=C2 (stereo not given)		2.9	
CCCc1cc(OC(F)(F)F)cc2c1O[C@@H](C(F)(F)F)C(C(=O)O)=C2	100		
C#Cc1ccc2c(c1)C=C(C(=O)O)C(C(F)(F)F)O2 (stereo not given)	94.2	1290	inhibition (INH) (Rattus norvegicus [3]): 60%
Cc1cc(C)c2c(c1)C=C(C(=O)O)[C@@H](C(F)(F)F)O2	100		ED50 (Rattus norvegicus [4]): 8.6 mg/kg; inhibition (INH) (Rattus norvegicus [3]): 80%; ED50 (Rattus norvegicus [3]): 2 mg/kg; ED50 (Rattus norvegicus [5]): 10 mg/kg; half-life [6]: 28 h; half-life [7]: 57 h; half-life [8]: 8.7 h; ED50 (Rattus norvegicus [9]): 20.7 mg/kg; half-life [10]: 19 h
N#Cc1ccc2c(c1)C=C(C(=O)O)C(C(F)(F)F)O2 (stereo not given)	115	1040	
Cc1cc(OC(F)(F)F)cc2c1O[C@H](C(F)(F)F)C(C(=O)O)=C2			inhibition (INH) (Rattus norvegicus [3]): >68%
C#Cc1cc(Cl)c2c(c1)C=C(C(=O)O)C(C(F)(F)F)O2 (stereo not given)	0.14	5.4	
Cc1cc(Cl)cc2c1OC(C(F)(F)F)C(C(=O)O)=C2 (stereo not given)	0.47		
